The values below come from ChEMBL document CHEMBL5143760, “Inhibitors of Transforming Growth Factor Beta Receptor 1 (TGFβr1) May Enhance the Efficacy of Several Monoclonal Antibodies as Cancer Therapy” (2022).

SMILES strings stand for the structures. Active and inactive are the calls of the source. The rule behind the calls is not given here.

Assay [1] deals with MC-38. Briefly: Antitumor activity against mouse MC38 cells xenografted in C57BL/6 mouse assessed as increase in animal survival at 30 mg/kg, po twice daily co-administered with anti-PD1-antibody at 5 mg/kg, ip twice weekly for 2 weeks. The format is functional, organism-based.
Assay [2] has as its system 4T1. The assay is described as follows: Antitumor activity against mouse 4T1 cells xenografted in Balb/cj mouse assessed as inhibition of tumor growth at 30 mg/kg, po twice daily for 21 days in presence of 4-1BB monoclonal antibody relative to control. The format is functional. The conditions noted are these: 4T1, 504 h, time 21 day, read-out: TGI.
Assay [3] relates to 4T1. Briefly: Antitumor activity against mouse 4T1 cells xenografted in Balb/cj mouse assessed as inhibition of tumor growth at 30 mg/kg, po twice daily for 21 days in presence of OXO40 monoclonal antibody relative to control. The format is functional. Conditions: 4T1, 504 h, time 21 day, read-out: TGI.
For assay [4], the system named is CT26. Briefly: Antitumor activity against mouse CT26 cells xenografted in Balb/c mouse assessed as tumor growth delay at 30 mg/kg, po twice daily for 28 days in presence of ant-CTLA4 antibody. The class given is functional. Conditions: time 28 day.
Assay [5] has as its system CT26. The assay is described as follows: Antitumor activity against mouse CT26 cells xenografted in Balb/c mouse assessed as time of events at 30 mg/kg, po twice daily for 28 days in presence of ant-CTLA4 antibody. Conditions: time 28 day. The class given is functional.
The test system of assay [6] is MC-38. The assay is described as follows: Antitumor activity against mouse MC38 cells xenografted in C57BL/6 mouse assessed as inhibition of tumor growth at 30 mg/kg, po twice daily co-administered with anti-PD1-antibody at 5 mg/kg, ip twice weekly for 2 weeks. The class given is functional, organism-based.
Assay [7] relates to 4T1. The assay is described as follows: Antitumor activity against mouse 4T1 cells xenografted in Balb/cj mouse assessed as inhibition of tumor growth at 30 mg/kg, po twice daily for 21 days relative to control. Conditions: 4T1, 504 h, time 21 day, read-out: TGI. The class given is functional.
The test system of assay [8] is CT26. The assay is described as follows: Antitumor activity against mouse CT26 cells xenografted in Balb/c mouse assessed as tumor growth delay at 30 mg/kg, po twice daily for 28 days. The conditions noted are these: time 28 day. The class given is functional.
Assay [9] relates to CT26. The assay is described as follows: Antitumor activity against mouse CT26 cells xenografted in Balb/c mouse assessed as time of events at 30 mg/kg, po twice daily for 28 days. The class given is functional. The conditions noted are these: time 28 day.

For `CC(C)c1cnc(-c2cc(Cl)ccc2F)cc1Nc1ccncc1C(=O)NC(CO)CO` [PF-06952229], the outcome in the assay with MC-38 [1] was Active. Besides, the inhibition in vivo at 30 mg/kg in the assay on 4T1 [2] was determined as 41%; in the assay with 4T1 [3], 29.5%; with 4T1 [7], 18%. Also, the Activity in the assay with CT26 [4] is on record as 106%; in the assay with CT26 [8] it was 18%. The Time in the assay on CT26 [5] is 59 days; in the assay with CT26 [9], 33.8 days. Moreover, the inhibition result in the assay on MC-38 [6] is “Active”.
